Source: US20260027083A1, “USE OF PPAR AGONIST FOR IMPROVEMENT OF ENERGY METABOLISM” (NOVMETAPHARMA CO., LTD., priority 2022, published 2026)

Experiments:
3T3-L1 adipocytes = test: 3T3-L1 adipocyte differentiation, Oil Red O staining; format: cell-based, mouse; conditions: treated together with rosiglitazone, each 25 μM
Method: A mouse preadipocyte 3T3-L1 cell line was cultured in DMEM containing 10% […] (CS) and 1% P/S. For differentiation of 3T3-L1, 10% FBS and 1% P/S were used. The cells were cultured in a 37° C. incubator humidified with 5% CO2 atmosphere.
3T3-L1 cells were seeded in a 12-well plate at a density of 5×10^4 cells/well. […] On day 2 of MDI addition, the medium was replaced with 1 μg/ml insulin.
After 2 days, the medium was replaced with DMEM containing 10% FBS and 1% P/S, and treated with a drug. The medium was replaced with fresh DMEM containing 10% FBS and 1% P/S, and treated with the drug three times every 2 days. Finally, the medium was replaced with DMEM containing only the drug in a serum-free state (serum starvation). After 2 days, differentiation of 3T3-L1 was completed.
After the differentiation of 3T3-L1 in the 12-well plate was completed, the cells were fixed with 4% paraformaldehyde and stained with an Oil Red O solution, and then the stained samples were photographed under a microscope (Nikon Eclipse Ti-s). An Oil Red O dye of the samples was dissolved in isopropanol, detected by a spectrophotometer at 492 nm, and the lipid droplet size distribution was measured using ImageJ. OCT-embedded liver samples were stained according to the Roy Ellis protocol. […]

high-fat diet mice [1] = test: Intraperitoneal glucose tolerance test (IP-GTT) in high-fat diet mice; format: in vivo, C57BL/6J mice; conditions: 5 mg/kg/day oral, 60% HFD, glucose 2 g/kg i.p. after 16 h fasting, FIG. 10
Method: (§1) The care and use of experimental animals were carried out with the approval of the Institutional Animal Care and Use Committee of Pohang University of Science and Technology. C57BL/6J mice were purchased from Japan SLC, Inc. 50 four-week-old male C57/BL/6J mice were acclimated for 2 weeks. The mice were randomly divided and orally administered with vehicle or 5 mg/kg/day of D6 or WY14643 for 13 weeks (oral gavage), and obesity was induced by a 60% high-fat diet (#D12492, Research diets, NJ, USA). Body weights and food intakes were measured weekly from 6 weeks of age, and after 16 weeks of age, adipose tissue and muscle volumes were measured using a Trimodality imaging system.
A glucose tolerance test (GTT) was performed on mice after 16 weeks of age after fasting for 16 hours and intraperitoneal glucose administration at 2 g/kg body weight. The blood glucose levels were measured at 0, 15, 30, 45, 60, 90, and 120 minutes after tail vein injection.
To confirm a metabolic disease inhibitory effect of the compound represented by Chemical Formula 1 through animal experiments, mice were acclimated for 2 weeks, and then obesity was induced by feeding a 60% high fat diet (HFD) and orally administered with vehicle or 5 mg/kg/day of the compound represented by Chemical Formula 1 (D6) or WY14643 for 13 weeks. […]

high-fat diet mice [2] = test: Serum analysis of high-fat diet mice; format: in vivo, C57BL/6J mice; conditions: 5 mg/kg/day oral, 60% HFD
Method: as §1
Mouse blood was obtained by cardiac puncture and incubated at room temperature for 30 minutes. Next, the blood sample was centrifuged at 3,000 rpm for 30 minutes at 4° C., and then the supernatant was collected and analyzed.
To confirm a metabolic disease inhibitory effect of the compound represented by Chemical Formula 1 through animal experiments, mice were acclimated for 2 weeks, and then obesity was induced by feeding a 60% high fat diet (HFD) and orally administered with vehicle or 5 mg/kg/day of the compound represented by Chemical Formula 1 (D6) or WY14643 for 13 weeks. Experiments such as IP-GTT, IP-ITT, and micro-CT were performed at the week 10 of drug administration (FIG. 5).

COc1ccc(-c2cc(=O)oc3c(C)c(OC(=O)[C@H](Cc4c[nH]c5ccccc45)NC(=O)OC(C)(C)C)ccc23)cc1 [Chemical Formula 1, [4-(4-methoxyphenyl)-8-methyl-2-oxochromen-7-yl] (2S)-3-(1H-indol-3-yl)-2-[(2-methylpropan-2-yl)oxycarbonylamino]propanoate]
lipid droplet size distribution in adipocytes (3T3-L1 adipocytes; FIG. 4 right): effectively reduced | lipid accumulation in adipocytes increased by rosiglitazone (Oil Red O) (3T3-L1 adipocytes; FIGS. 3 and 4 left): reduced | glucose tolerance (IP-GTT) (high-fat diet mice [1]): improved | blood sugar (serum glucose) (high-fat diet mice [2]; FIG. 12): significantly reduced | blood lipids (LDLC) (high-fat diet mice [2]; FIG. 13): significantly reduced
